Data published in patent US20110124614A1, “Methods And Compositions For The Treatment of Autoimmune Disorders” (priority 2008, published 2011).
Entries after “also recorded” stand apart in the source; their conditions may differ.

Assays:
Format in all cases: in vivo, mouse
[1] = test system: CNS infiltration, demyelination and axonal damage in spinal cord of WT EAE mice; experiment: Spinal cord histology (H&E, LFB-PAS, SMI312, SMI32), WT EAE mice; settings: for immune cell infiltration and demyelination in the CNS (H&E, LFB-PAS): WT mice of FIG. 2A experiment, FIG. 4 upper panels; for axons in the spinal cords (SMI312 staining) / axonal damage in spinal cord sections / SMI32 staining in white matter of spinal cords (ongoing axonal damage): WT mice; for axons in the spinal cords (SMI312 staining): FIG. 4 lower left panel; for axonal damage in spinal cord sections: FIG. 4 lower panels; for SMI32 staining in white matter of spinal cords (ongoing axonal damage): FIG. 4 lower right panel
Description: Spinal cords were dissected out for histology. Intact spinal columns were removed and dissected after fixation in 4% paraformaldehyde, dehydrated and embedding in paraffin. To examine neuroinflammation, the sections were stained with hematoxylin and eosin (H&E). To examine demyelination, the sections were stained with Luxon fast blue plus periodic acid Schiff (LFB-PAS). The mice from the clinical experiment shown in FIG. 2A were euthanized at the end of the experiment and spinal cords were dissected out for histology. Intact spinal cords were removed and dissected after fixation in 4% paraformaldehyde, dehydrated and embedding in paraffin. To examine neuroinflammation, the sections were stained with hematoxylin and eosin (H&E). To examine demyelination, the sections were stained with Luxon fast blue plus periodic acid Schiff (LFB-PAS). To visualize axonal damage, spinal cords were fixed in 4% paraformaldehyde (maass/volume in PBS, pH 7.4) at 4° C. for at least 48 h. The spinal cords were dissected out from the columns, cut into sections 1-2 mm in length from the sampled thoracic or […] cords, dehydrated and embedded in paraffin blocks. Then, 10 μm thick sections were cut from paraffin blocks and mounted onto pre-cleaned microscope slides. The sections were dewaxed and rehydrated sequentially by xylene (2 min), gradient ethanol (100%, 95%, 85%, 2 min each) and PBS (5 min) and then cooked (120° C.) in antigen unmasking agent Trilogy® (Cell Marque, Hot Springs, Ark.) for 10 min in a pressure steamer. […] The slides were counterstained with hematoxylin for 30-60 s to visualize nuclei, washed with tap water, dehydrated, and mounted with Cytoseal™ XYL mounting medium (Richard-Allan Scientific, Kalamazoo, Mich.). The sections were analyzed by light microscopy after staining and recorded with a digital camera.

[2] = test system: PD-1 expression in CD4^+FoxP3^+ or CD4^+FoxP3^− T cells; experiment: PD-1 expression in CD4+FoxP3+/FoxP3- T cells by flow cytometry, E2-treated WT vs knockout mice (Example V)
Description: Age matched WT C57BL/6 from the animal service at National Cancer Institute (Frederick, Md.), GPR30KO prepared as in Example 1, or PDD-KO mice (Dr. […] Splenocytes or lymph node cells from GPR30KO mice were obtained at the end of the clinical experiment in FIG. 1A and stained for FoxP3 and PD-1, as well as cellular markers for T cells and antigen presenting cells (APC). For membrane staining, 1 million cells were stained at 4° C. in the dark with appropriate Ab dilutions in staining buffer (PBS containing 0.5% BSA and 0.02% sodium azide), Intracellular staining for FoxP3 was performed following the protocol recommended by eBioscience (San Diego, Calif.). Briefly, 4 million cells were surface stained following standard procedures. After washing, the cells were fixed overnight and washed twice with 0.5 ml of permeabilization buffer. […] Flow cytometry data were collected on LSRII and FACSCalibur flow cytometers (BD Bioscience, Franklin Lakes, N.J.), and analyzed using FlowJo software (Tree Star, Ashland, Oreg.). […] The expression levels of PD-1 were analyzed by gating on CD4^+FoxP3^+ or CD4^+FoxP3^− T cells from WT or GPR30 mice. The bar charts in FIG. 5A show the average mean fluorescence intensity (MFI) of Pd-1 in CD4^+FoxP3^+ or CD4^+FoxP3^− from all mice in each group. […]

[3] = test system: splenocytes of PD-1KO EAE mice; experiment: Ex vivo T cell proliferation to mMOG-35-55, PD-1KO mice; settings: G-1 treatment, FIG. 6B
Description: Splenocytes and lymph node cells were harvested ex-vivo from G-1 and E2 implanted mice and cultured in a 96-well flat bottom tissue culture plate at 4×10^5 cells/well in stimulation medium in the presence of APC, irradiated (2500 rad) syngenic thymocytes at a ration of 1:10 (T:APCs) wither with or without mMog 35-55 peptide at varying concentrations. The cells were incubated for 3 days at 37° C. in 7% CO2 and pulsed with 0.5 μCi of [^3H] thymidine (Perkin-Elmer, Boston, Mass.) for the final 18 h of incubation. The cells were harvested onto glass fiber filters, and incorporated radioactivity was measured by a liquid scintillation counter. The cpm values (mean±SD) were calculated from triplicate wells. Stimulation index (SI) was calculated by dividing the experimental cpm by the control cpm.
Splenocytes from placebo and G-1 treatment groups were evaluated for T cell proliferation and cytokine secretion in 48 h supernatants.

[4] = test system: cytokine secretion by splenocytes of PD-1KO immunized mice; experiment: Cytokine secretion of mMog-35-55 stimulated splenocytes, Luminex, PD-1KO mice; settings: G-1 treated PD-1KO mice
Description: PD-1KO (Dr. […] One week after implantation experimental autoimmune encephalomyelitis (EAE) was induced. Splenocytes were harvested from […] cell proliferation and cytokine secretion in 48 h supernatants. (*P<0.05, or **P<0.01 compared to placebo). Lymph node and spleen cells were cultured at 4×10^6 cells/well in a 24 well flat-bottom culture plate in stimulation medium (RPMI 1640, 1% sodium pyruvate, 1% L-glutamine, 0.4% 2-β-ME, 10% FBS) with 25 μg/ml mMog-35-55 peptide for 48H. Supernatants were then harvested and stored at -80° C. until tested for cytokines. Culture supernatants were assessed for cytokine levels using a Luminex Bio-Plex mouse cytokine assay kit (BioRad, Hercules, Calif.) following the manufacturer's instructions. The following cytokines were determined in a single assay in three separate experiments: IL-1βIFN-γ, TNF-α, IL-2, IL-4, IL-5. IL-6, IL-12, IL-13, and IL-17. […] This cytokine profile was drastically altered in G-1 treated PD-1Ko mice. The decrease of Il-17 and increase of Il-6, Il-10 and IFN-γ production were abolished, whereas the reduction in IL-2 and Il-4 remained. Thus PD-1 was required for […] downregulation of IL-17 but not Il-2 and Il-4, and upregulation of IL-6, Il10 and IFN-γ.

## C[C@]12CC[C@@H]3c4ccc(O)cc4CC[C@H]3[C@@H]1CC[C@@H]2O [E2, 17β estradiol]
[1]; E2-treated WT mice, Example II, FIG. 1B
  pathological signs of EAE in CNS (immune cell infiltration and demyelination): no pathological signs of EAE
[1]
  immune cell infiltration and demyelination in the CNS (H&E, LFB-PAS): markedly ameliorated
  axons in the spinal cords (SMI312 staining): well preserved
  axonal damage in spinal cord sections: reduced the level of axonal damage
  SMI32 staining in white matter of spinal cords (ongoing axonal damage): much less SMI32 staining
[2]; WT or PD-1KO mice (so in the source)
  PD-1 expression in non-regulatory CD4^+FoxP3^− T cells: did not induce a significant shift
[2]; splenocytes from PD-1KO mice (so in the source), FIG. 5A
  E2 induced upregulation of PD-1 expression in CD4+FoxP3+ cells: abolished

## CC(=O)c1ccc2c(c1)C1C=CCC1C(c1cc3c(cc1Br)OCO3)N2 (stereo not drawn) [G-1]
[1]
  immune cell infiltration and demyelination in the CNS (H&E, LFB-PAS): markedly ameliorated; also recorded: reduced
  axons in the spinal cords (SMI312 staining): well preserved
  axonal damage in spinal cord sections: reduced the level of axonal damage
  SMI32 staining in white matter of spinal cords (ongoing axonal damage): much less SMI32 staining
[3]
  T cell proliferation to mMog-35-55: did not significantly change
[4]
  decrease of Il-17 production: abolished
  increase of IFN-γ production: abolished
  increase of Il-6 production: abolished
  increase of Il-10 production: abolished
  reduction in IL-2: remained
  reduction in Il-4: remained
